Source: publication PMC4577729, “7-(Pyrazol-4-yl)-3H-imidazo[4,5-b]pyridine-based derivatives for kinase inhibition: Co-crystallisation studies with Aurora-A reveal distinct differences in the orientation of the pyrazole N1-substituent” (Bioorganic & Medicinal Chemistry Letters, 2015)

Assays:
Assay in all cases: Kinase selectivity profiling
Format in all cases: biochemical
CHK2 = CHK2 (Homo sapiens, UniProt O96017); conditions: 1 µM, assay duplicates
Protocol: (§1) [20] Kinase selectivity profiling for compounds 7a, 7d, 14d and 14g was carried out at the International Centre for Protein Kinase Profiling, Division of Signal Transduction Therapy, University of Dundee.
(§2) Table S1: Kinase selectivity profiling of compounds 7a and 7d in a 102-kinase panel screened at a concentration of 1 µM.
(§3) Table S2: Kinase selectivity profiling of compounds 14d and 14g in a 105-kinase panel screened at a concentration of 1 µM.

HER4 = HER4 (Homo sapiens, UniProt Q15303); conditions: 1 µM, assay duplicates
Protocol: as §1, §2, §3

DYRK2 = DYRK2 (Homo sapiens, UniProt Q92630); conditions: 1 µM, assay duplicates
Protocol: as §1, §2, §3

FGF-R1 = FGF-R1 (Homo sapiens, UniProt P11362); conditions: 1 µM, assay duplicates
Protocol: as §1, §2, §3

p38d MAPK = p38d MAPK (Homo sapiens, UniProt O15264); conditions: 1 µM, assay duplicates
Protocol: as §1, §2, §3

p38a MAPK = p38a MAPK (Homo sapiens, UniProt Q16539); conditions: 1 µM, assay duplicates
Protocol: as §1, §2, §3

Lck = Lck (Homo sapiens, UniProt P06239); conditions: 1 µM, assay duplicates
Protocol: as §1, §2, §3

JNK3 = JNK3 (Homo sapiens, UniProt P53779); conditions: 1 µM, assay duplicates
Protocol: as §1, §2, §3

CAMK1 = CAMK1 (Homo sapiens, UniProt Q14012); conditions: 1 µM, assay duplicates
Protocol: as §1, §2, §3

LKB1 = LKB1 (Homo sapiens, UniProt Q15831); conditions: 1 µM, assay duplicates
Protocol: as §1, §2, §3

EPH-B3 = EPH-B3 (Homo sapiens, UniProt P54753); conditions: 1 µM, assay duplicates
Protocol: as §1, §2, §3

TBK1 = TBK1 (Homo sapiens, UniProt Q9UHD2); conditions: 1 µM, assay duplicates
Protocol: as §1, §2, §3

PHK = PHK (Homo sapiens, UniProt Q16816); conditions: 1 µM, assay duplicates
Protocol: as §1, §2, §3

RIPK2 = RIPK2 (Homo sapiens, UniProt O43353); conditions: 1 µM, assay duplicates
Protocol: as §1, §2, §3

MARK3 = MARK3 (Homo sapiens, UniProt P27448); conditions: 1 µM, assay duplicates
Protocol: as §1, §2, §3

IGF-1R = IGF-1R (Homo sapiens, UniProt P08069); conditions: 1 µM, assay duplicates
Protocol: as §1, §2, §3

ROCK 2 = ROCK 2 (Homo sapiens, UniProt O75116); conditions: 1 µM, assay duplicates
Protocol: as §1, §2, §3

IKKb = IKKb (Homo sapiens, UniProt O14920); conditions: 1 µM, assay duplicates
Protocol: as §1, §2, §3

MKK1 = MKK1 (Homo sapiens, UniProt Q02750); conditions: 1 µM, assay duplicates
Protocol: as §1, §2, §3

PIM2 = PIM2 (Homo sapiens, UniProt Q9P1W9); conditions: 1 µM, assay duplicates
Protocol: as §1, §2, §3

BRSK1 = BRSK1 (Homo sapiens, UniProt Q8TDC3); conditions: 1 µM, assay duplicates
Protocol: as §1, §2, §3

TTK = TTK (Homo sapiens, UniProt P33981); conditions: 1 µM, assay duplicates
Protocol: as §1, §2, §3

GCK = GCK (Homo sapiens, UniProt Q12851); conditions: 1 µM, assay duplicates
Protocol: as §1, §2, §3

PKA = PKA (Homo sapiens, UniProt P17612); conditions: 1 µM, assay duplicates
Protocol: as §1, §2, §3

ERK2 = ERK2 (Homo sapiens, UniProt P28482); conditions: 1 µM, assay duplicates
Protocol: as §1, §2, §3

PKCa = PKCa (Homo sapiens, UniProt P17252); conditions: 1 µM, assay duplicates
Protocol: as §1, §2, §3

PAK2 = PAK2 (Homo sapiens, UniProt Q13177); conditions: 1 µM, assay duplicates
Protocol: as §1, §2, §3

RSK2 = RSK2 (Homo sapiens, UniProt P51812); conditions: 1 µM, assay duplicates
Protocol: as §1, §2, §3

ERK8 = target: T1, ERK8 (Homo sapiens, UniProt Q8TD08); conditions: for ERK8 inhibition: 1 μM; for ERK8 % activity remaining: 1 µM, assay duplicates
T1 sequence (Q8TD08 1-544): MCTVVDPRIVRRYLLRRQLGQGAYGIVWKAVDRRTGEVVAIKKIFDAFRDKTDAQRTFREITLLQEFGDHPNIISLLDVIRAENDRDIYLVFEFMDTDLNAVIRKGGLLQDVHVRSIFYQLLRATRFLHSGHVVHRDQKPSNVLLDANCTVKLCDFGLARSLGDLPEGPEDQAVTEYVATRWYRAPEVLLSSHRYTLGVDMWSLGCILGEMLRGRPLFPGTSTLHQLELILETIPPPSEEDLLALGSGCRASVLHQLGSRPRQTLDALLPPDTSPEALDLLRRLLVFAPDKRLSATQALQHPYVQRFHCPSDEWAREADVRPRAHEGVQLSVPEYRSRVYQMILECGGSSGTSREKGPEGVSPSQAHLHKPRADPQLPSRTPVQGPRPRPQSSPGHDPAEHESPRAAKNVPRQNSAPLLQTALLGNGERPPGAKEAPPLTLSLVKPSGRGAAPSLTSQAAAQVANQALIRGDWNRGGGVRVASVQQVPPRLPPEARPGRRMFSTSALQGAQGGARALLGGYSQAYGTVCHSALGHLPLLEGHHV
Protocol: as §1, §2, §3

TrkA = TrkA (Homo sapiens, UniProt P04629); conditions: for TrkA inhibition: 1 μM; for TrkA % activity remaining: 1 µM, assay duplicates
Protocol: as §1, §2, §3

PRAK = PRAK (Homo sapiens, UniProt Q8IW41); conditions: 1 µM, assay duplicates
Protocol: as §1, §2, §3

MARK4 = MARK4 (Homo sapiens, UniProt Q96L34); conditions: 1 µM, assay duplicates
Protocol: as §1, §2, §3

IR = IR (Homo sapiens, UniProt P06213); conditions: 1 µM, assay duplicates
Protocol: as §1, §2, §3

JNK1 = JNK1 (Homo sapiens, UniProt P45983); conditions: 1 µM, assay duplicates
Protocol: as §1, §2, §3

PRK2 = PRK2 (Homo sapiens, UniProt Q16513); conditions: 1 µM, assay duplicates
Protocol: as §1, §2, §3

Sequence of TrkA (P04629 33-796): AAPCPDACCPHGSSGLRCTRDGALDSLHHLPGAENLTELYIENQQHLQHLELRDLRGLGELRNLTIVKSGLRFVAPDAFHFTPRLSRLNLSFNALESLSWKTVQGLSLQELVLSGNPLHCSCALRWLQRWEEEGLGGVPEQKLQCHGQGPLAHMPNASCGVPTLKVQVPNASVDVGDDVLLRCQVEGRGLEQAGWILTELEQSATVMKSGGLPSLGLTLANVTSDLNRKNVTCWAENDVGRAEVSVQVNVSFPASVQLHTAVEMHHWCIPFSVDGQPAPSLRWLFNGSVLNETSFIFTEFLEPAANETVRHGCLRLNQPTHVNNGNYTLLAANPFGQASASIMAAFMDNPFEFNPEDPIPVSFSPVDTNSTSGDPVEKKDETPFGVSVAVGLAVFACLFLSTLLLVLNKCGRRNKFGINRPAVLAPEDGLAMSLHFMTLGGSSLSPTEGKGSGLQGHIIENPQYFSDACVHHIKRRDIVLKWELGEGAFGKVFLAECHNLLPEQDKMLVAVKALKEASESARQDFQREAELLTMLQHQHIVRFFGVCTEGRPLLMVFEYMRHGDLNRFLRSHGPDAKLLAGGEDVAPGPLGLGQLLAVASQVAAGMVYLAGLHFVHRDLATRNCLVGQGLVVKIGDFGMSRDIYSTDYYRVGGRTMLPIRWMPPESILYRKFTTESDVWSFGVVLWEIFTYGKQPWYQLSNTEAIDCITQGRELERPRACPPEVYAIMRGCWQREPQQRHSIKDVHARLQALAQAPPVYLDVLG
Sequence of EPH-B3 (P54753 34-998): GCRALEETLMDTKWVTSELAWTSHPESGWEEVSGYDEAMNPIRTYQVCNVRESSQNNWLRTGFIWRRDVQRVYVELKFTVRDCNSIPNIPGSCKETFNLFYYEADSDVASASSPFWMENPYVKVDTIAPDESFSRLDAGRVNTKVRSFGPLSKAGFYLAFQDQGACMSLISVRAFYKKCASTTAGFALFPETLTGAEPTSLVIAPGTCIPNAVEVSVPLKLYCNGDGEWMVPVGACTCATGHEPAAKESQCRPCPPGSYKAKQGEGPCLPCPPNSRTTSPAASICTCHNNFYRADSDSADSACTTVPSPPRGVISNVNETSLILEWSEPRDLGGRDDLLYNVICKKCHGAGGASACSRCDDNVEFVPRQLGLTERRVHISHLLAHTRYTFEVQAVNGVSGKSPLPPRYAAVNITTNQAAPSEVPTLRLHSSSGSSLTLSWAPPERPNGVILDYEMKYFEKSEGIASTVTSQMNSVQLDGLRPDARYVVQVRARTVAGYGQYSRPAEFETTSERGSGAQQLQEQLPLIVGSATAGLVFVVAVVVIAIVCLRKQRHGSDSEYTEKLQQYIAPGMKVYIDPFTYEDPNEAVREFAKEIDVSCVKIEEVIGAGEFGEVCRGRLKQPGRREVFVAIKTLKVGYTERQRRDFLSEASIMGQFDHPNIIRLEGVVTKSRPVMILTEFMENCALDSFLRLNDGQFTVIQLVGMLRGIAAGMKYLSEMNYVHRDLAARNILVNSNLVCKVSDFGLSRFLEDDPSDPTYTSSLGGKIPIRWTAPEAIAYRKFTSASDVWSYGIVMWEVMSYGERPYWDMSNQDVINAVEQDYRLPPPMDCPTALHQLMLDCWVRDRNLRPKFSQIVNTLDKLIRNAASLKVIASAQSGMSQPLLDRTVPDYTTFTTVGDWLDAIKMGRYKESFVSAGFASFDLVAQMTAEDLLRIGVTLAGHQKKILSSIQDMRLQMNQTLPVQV
Sequence of GCK (Q12851 whole entry): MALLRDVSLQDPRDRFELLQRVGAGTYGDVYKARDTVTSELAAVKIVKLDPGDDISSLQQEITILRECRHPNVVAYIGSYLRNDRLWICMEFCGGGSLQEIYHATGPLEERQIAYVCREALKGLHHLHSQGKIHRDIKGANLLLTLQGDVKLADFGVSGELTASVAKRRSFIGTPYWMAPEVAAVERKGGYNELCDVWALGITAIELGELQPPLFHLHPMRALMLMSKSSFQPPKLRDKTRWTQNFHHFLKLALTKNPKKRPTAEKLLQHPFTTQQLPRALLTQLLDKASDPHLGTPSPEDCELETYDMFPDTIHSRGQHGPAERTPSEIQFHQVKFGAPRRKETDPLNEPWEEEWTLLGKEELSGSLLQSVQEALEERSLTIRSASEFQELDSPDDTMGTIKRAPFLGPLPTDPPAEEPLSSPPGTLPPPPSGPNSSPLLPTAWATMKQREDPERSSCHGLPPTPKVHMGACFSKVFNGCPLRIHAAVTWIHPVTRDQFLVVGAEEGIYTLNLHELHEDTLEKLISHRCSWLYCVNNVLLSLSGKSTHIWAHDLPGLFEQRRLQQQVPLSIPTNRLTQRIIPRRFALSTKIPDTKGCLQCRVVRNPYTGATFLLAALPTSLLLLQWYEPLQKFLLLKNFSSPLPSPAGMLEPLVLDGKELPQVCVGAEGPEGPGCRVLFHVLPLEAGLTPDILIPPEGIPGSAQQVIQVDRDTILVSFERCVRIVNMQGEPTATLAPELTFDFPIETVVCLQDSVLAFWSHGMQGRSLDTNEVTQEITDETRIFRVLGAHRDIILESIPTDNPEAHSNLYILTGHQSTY
Sequence of HER4 (Q15303 26-1308): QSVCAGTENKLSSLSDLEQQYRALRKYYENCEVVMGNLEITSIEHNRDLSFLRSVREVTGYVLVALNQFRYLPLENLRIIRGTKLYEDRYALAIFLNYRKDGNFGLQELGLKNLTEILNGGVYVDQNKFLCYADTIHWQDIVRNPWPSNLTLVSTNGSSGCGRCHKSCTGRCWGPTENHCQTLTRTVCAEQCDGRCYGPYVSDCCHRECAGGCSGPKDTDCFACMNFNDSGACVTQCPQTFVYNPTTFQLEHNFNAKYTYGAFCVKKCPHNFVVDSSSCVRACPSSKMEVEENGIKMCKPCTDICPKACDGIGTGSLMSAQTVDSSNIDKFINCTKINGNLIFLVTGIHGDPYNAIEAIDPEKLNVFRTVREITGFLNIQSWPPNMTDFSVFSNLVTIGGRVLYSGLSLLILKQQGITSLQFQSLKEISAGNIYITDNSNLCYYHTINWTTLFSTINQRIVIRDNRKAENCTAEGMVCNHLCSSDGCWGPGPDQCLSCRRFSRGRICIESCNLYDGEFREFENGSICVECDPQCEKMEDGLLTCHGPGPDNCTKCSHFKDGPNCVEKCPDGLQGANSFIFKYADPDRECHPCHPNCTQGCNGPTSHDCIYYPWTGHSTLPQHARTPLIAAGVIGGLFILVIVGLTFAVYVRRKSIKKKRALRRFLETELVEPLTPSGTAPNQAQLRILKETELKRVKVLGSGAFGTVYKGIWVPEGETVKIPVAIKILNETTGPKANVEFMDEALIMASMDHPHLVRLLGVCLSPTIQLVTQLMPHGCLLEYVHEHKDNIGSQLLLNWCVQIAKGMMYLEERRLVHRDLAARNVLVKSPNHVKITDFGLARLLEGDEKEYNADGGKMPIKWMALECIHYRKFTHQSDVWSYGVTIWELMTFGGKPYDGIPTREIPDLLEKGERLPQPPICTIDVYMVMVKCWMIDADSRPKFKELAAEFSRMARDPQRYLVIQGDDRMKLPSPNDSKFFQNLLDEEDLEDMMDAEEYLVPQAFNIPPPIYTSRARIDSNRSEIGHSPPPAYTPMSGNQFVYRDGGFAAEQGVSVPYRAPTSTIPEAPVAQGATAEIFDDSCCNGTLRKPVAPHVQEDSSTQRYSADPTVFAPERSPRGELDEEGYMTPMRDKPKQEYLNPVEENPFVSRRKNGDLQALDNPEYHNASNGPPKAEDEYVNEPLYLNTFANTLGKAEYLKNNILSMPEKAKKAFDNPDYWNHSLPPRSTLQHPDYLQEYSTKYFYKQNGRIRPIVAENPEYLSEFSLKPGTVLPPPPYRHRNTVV
Sequence of BRSK1 (Q8TDC3 whole entry): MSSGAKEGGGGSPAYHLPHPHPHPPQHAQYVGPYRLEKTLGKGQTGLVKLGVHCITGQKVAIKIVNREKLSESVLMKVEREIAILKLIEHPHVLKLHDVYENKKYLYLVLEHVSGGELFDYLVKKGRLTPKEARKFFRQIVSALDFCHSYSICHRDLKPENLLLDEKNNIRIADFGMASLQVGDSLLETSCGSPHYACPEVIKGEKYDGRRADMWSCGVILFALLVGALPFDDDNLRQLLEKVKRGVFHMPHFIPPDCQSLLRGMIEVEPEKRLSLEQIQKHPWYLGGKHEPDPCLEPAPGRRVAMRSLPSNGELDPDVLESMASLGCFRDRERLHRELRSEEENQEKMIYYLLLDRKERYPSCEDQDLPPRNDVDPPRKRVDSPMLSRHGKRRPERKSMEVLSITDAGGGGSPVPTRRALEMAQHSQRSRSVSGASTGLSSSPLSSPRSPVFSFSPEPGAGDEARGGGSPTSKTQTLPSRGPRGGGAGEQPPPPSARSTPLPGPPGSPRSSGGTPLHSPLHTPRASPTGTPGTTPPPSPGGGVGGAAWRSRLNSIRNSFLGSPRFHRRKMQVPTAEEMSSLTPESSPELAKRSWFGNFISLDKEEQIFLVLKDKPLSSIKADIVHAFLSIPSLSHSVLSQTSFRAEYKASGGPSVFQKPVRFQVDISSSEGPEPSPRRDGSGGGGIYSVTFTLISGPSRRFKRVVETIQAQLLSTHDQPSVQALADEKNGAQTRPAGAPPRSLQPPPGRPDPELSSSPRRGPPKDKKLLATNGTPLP
Sequence of JNK1 (P45983 whole entry): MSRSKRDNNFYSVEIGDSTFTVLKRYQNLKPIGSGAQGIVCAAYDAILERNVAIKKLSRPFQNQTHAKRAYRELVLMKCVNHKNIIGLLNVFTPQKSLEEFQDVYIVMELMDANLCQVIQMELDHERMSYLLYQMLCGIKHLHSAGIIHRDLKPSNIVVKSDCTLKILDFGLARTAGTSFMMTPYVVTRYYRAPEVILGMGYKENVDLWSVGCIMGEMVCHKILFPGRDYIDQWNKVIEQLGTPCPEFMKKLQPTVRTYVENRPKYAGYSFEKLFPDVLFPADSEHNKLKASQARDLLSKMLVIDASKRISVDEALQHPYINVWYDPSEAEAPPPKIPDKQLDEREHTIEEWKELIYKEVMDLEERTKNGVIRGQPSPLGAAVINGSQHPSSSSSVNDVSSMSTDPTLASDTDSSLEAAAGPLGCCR

| Compound | CHK2 % activity remaining (CHK2) [%] | HER4 % activity remaining (HER4) [%] | DYRK2 % activity remaining (DYRK2) [%] | FGF-R1 % activity remaining (FGF-R1) [%] | p38d MAPK % activity remaining (p38d MAPK) [%] | p38a MAPK % activity remaining (p38a MAPK) [%] | Lck % activity remaining (Lck) [%] | JNK3 % activity remaining (JNK3) [%] | CAMK1 % activity remaining (CAMK1) [%] | LKB1 % activity remaining (LKB1) [%] | EPH-B3 % activity remaining (EPH-B3) [%] | TBK1 % activity remaining (TBK1) [%] | PHK % activity remaining (PHK) [%] | RIPK2 % activity remaining (RIPK2) [%] | MARK3 % activity remaining (MARK3) [%] | IGF-1R % activity remaining (IGF-1R) [%] | ROCK 2 % activity remaining (ROCK 2) [%] | IKKb % activity remaining (IKKb) [%] | MKK1 % activity remaining (MKK1) [%] | PIM2 % activity remaining (PIM2) [%] | also measured |
| --- | --- | --- | --- | --- | --- | --- | --- | --- | --- | --- | --- | --- | --- | --- | --- | --- | --- | --- | --- | --- | --- |
| Cc1nn(C)cc1-c1nc2c(-c3cnn(Cc4ccccc4)c3)c(Cl)cnc2[nH]1 [Compound 7a] | 26 | 89 | 29 | 5 | 18 | 90 | 61 | 18 | 87 | 49 | 99 | 24 | 17 | 40 | 20 | 10 | 36 | 48 | 28 | 86 | BRSK1 % activity remaining (BRSK1): 36%; TTK % activity remaining (TTK): 29%; GCK % activity remaining (GCK): 22%; PKA % activity remaining (PKA): 72%; ERK2 % activity remaining (ERK2): 16%; PKCa % activity remaining (PKCa): 63%; PAK2 % activity remaining (PAK2): 82%; RSK2 % activity remaining (RSK2): 42%; ERK8 inhibition (ERK8): greater than 80%; ERK8 % activity remaining (ERK8): 6%; TrkA inhibition (TrkA): greater than 80%; TrkA % activity remaining (TrkA): 6%; PRAK % activity remaining (PRAK): 83%; MARK4 % activity remaining (MARK4): 37%; IR % activity remaining (IR): 3%; JNK1 % activity remaining (JNK1): 13%; PRK2 % activity remaining (PRK2): 42% |
| Cc1cc(Cn2cc(-c3c(Cl)cnc4[nH]c(-c5cn(C)nc5C)nc34)cn2)no1 [Compound 14d] | 32 | 73 | 34 | 7 | 41 | 85 | 34 | 62 | 77 | 62 | 54 | 7 | 27 | 49 | 19 | 5 | 44 | 63 | 40 | 91 | BRSK1 % activity remaining (BRSK1): 61%; TTK % activity remaining (TTK): 42%; GCK % activity remaining (GCK): 40%; PKA % activity remaining (PKA): 63%; ERK2 % activity remaining (ERK2): 32%; PKCa % activity remaining (PKCa): 83%; PAK2 % activity remaining (PAK2): 102%; RSK2 % activity remaining (RSK2): 20%; ERK8 inhibition (ERK8): ≥ 80%; ERK8 % activity remaining (ERK8): 1%; TrkA inhibition (TrkA): ≥ 80%; TrkA % activity remaining (TrkA): 15%; PRAK % activity remaining (PRAK): 100%; MARK4 % activity remaining (MARK4): 25%; IR % activity remaining (IR): 53%; JNK1 % activity remaining (JNK1): 45%; PRK2 % activity remaining (PRK2): 43% |
